# Measured values as given in ChEMBL document CHEMBL1201862, “PubChem BioAssay data set” (2004).
# Calls of active or inactive are those of the source.
# Tests used:
# [1] = target: T1, Lytic switch protein BZLF1 (Epstein-Barr virus (strain B95-8) (HHV-4) (Human herpesvirus 4), UniProt P03206); assay: inhibition of BZLF1 ZTA DNA binding – biochemical, fluorescence polarization, Epstein-Barr virus, 1536-well, counter-screen for EBNA-1 inhibitor project, dose response (AID 2377); design: species or system human gammaherpesvirus 4;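 note: fluorescence polarization of Cy5-labelled ZRE DNA probe bound by purified Zta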
# T1 sequence (P03206 whole entry): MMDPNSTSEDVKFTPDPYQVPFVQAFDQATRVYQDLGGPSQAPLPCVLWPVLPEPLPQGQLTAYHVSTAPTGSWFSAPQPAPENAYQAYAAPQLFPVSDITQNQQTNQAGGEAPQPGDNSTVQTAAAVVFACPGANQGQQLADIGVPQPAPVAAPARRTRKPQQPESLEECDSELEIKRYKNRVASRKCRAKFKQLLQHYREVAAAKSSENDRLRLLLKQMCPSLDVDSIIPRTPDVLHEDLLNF
# [2] = target: T2, Epstein-Barr nuclear antigen 1 (Epstein-Barr virus (strain B95-8) (HHV-4) (Human herpesvirus 4), UniProt P03211); assay: inhibition of EBV nuclear antigen 1 DNA binding – biochemical, fluorescence polarization, 1536-well, dose response (AID 2381); design: species or system human gammaherpesvirus 4;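 note: fluorescence polarization of a Cy5 DNA probe bound by EBNA-1 protein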
# T2 sequence (P03211 whole entry): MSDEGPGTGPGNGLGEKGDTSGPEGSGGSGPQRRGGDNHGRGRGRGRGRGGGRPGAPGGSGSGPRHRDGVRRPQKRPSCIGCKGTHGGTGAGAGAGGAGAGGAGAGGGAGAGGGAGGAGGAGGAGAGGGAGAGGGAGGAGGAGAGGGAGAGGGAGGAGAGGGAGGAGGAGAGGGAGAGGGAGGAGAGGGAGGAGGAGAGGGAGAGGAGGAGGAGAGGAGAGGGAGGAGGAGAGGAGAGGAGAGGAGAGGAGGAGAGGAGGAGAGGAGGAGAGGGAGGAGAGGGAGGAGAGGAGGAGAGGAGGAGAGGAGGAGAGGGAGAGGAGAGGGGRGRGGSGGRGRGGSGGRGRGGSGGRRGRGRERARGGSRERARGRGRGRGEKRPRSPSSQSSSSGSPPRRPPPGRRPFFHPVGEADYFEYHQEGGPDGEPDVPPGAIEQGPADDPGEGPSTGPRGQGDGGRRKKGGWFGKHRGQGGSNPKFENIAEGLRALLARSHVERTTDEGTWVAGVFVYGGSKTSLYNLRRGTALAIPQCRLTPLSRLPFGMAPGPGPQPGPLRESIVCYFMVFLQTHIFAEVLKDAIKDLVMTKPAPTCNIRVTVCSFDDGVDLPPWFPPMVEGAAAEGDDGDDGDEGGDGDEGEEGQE
# Kallikrein-7 = Kallikrein-7 (Homo sapiens, UniProt P49862); assay: Fluorescence Intensity-based biochemical primary high throughput dose response assay to identify activators of kallikrein-7 (K7) zymogen.
# Paired box protein Pax-8 = Paired box protein Pax-8 (Homo sapiens, UniProt Q06710); assay: PAX8 transcriptional activity inhibition in RMG-I – RMG-I cells, luciferase, cherry-pick, dose response (AID 687027); type: functional, cell-based;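 note: luciferase reporter driven by Pax8 target thyroperoxidase promoter measured by SteadyGlo luminescence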
# [3] = general cell-killing toxicity readout – plate reader, dry powder samples, cytotoxicity control for PAX8 inhibitor project, dose response (AID 743021); type: functional, cell-based
# [4] = viability loss in THP-1 monocytes – THP-1 cells, cytotoxicity control for Vif-APOBEC3G degradation inhibitor project, dose response (AID 1117359); type: functional; details: THP-1
# [5] = OVCAR8 cell viability loss – plate reader, dry powder samples, PAX8 project, dose response (AID 743197); type: functional, cell-based; details: OVCAR-8
# [6] = A2780 cell killing – plate reader, dry powder samples, cytotoxicity control, dose response (AID 743046); type: functional, cell-based
# [7] = growth inhibition of PfATP4-mutant resistant parasites – NITD609-resistant line, SYBR Green, dry powder, dose response (AID 1159571); type: functional, cell-based;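 note: parasites synchronized at ring stage by sorbitol before testing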
# [8] = P. falciparum Dd2 growth inhibitors, dose response, SYBR Green, cherry-picked samples (AID 1159567); type: functional, cell-based
# [9] = toxicity to human HepG2 hepatoma cells – cell-based, plate reader, dry powder samples, cytotoxicity control, dose response (AID 1159569); type: functional;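 note: inhibitor potency with signal falling toward the positive control level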
# [10] = Dd2 malaria parasite growth inhibition potency – SYBR Green, dry powder samples, dose response (AID 1159566); type: functional, cell-based;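 note: potency for growth inhibition with lower SYBR green DNA signal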
# [11] = growth inhibition of yeast DHODH-expressing 3D7 parasites – SYBR Green, dry powder samples, dose response (AID 1159570); type: functional, cell-based;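 note: parasite growth measured after 72 hours of compound exposure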
# [12] = toxicity to human hepatoma HepG2 cells – cell-based, cherry-picked samples, cytotoxicity control, dose response (AID 1159577); type: functional
# Chain of Paired box protein Pax-8 (Q06710 whole entry): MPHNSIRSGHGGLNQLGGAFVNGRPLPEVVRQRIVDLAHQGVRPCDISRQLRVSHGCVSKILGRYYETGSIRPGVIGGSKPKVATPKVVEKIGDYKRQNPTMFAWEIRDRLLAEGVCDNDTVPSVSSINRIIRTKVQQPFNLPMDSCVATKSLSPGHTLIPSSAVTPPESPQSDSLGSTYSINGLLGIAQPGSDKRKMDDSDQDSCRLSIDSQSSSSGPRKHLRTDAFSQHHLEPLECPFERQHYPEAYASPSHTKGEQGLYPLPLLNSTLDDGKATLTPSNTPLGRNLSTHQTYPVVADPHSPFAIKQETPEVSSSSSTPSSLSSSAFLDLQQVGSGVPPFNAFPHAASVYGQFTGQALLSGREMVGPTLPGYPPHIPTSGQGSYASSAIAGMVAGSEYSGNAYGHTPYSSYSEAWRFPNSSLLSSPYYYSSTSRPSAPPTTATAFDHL
# Chain of Kallikrein-7 (P49862 whole entry): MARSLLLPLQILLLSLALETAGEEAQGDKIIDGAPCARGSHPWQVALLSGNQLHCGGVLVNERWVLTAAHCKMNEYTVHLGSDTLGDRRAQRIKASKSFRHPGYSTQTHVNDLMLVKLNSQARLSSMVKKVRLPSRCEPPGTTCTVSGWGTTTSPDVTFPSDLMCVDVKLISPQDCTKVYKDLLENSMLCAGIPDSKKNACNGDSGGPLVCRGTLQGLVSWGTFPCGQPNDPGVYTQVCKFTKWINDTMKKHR
structure (smiles),measurement,setting,value
COc1ccc(Cc2nnc(NC(=O)Nc3ccccc3F)s2)cc1OC,IC50,[1],> 111 µM (not active)
same,IC50,[2],6.66 µM (active)
CC(=O)Nc1ccc(S(=O)(=O)[N-]c2nc3ccccc3nc2-[n+]2ccc(NC(=O)c3ccccc3)cc2)cc1,EC50,Kallikrein-7,> 69.5 µM (inactive)
CSc1ccccc1NC(=O)Cn1nnc(-c2ccc(S(C)(=O)=O)cc2)n1,IC50,[1],> 111 µM (not active)
same,IC50,[2],6.17 µM (active)
Oc1nc2ccccc2n1C1CCN(C(c2cccs2)c2nnnn2-c2ccc3c(c2)OCCO3)CC1 (stereo not drawn),AC50,Paired box protein Pax-8,1.78 µM (active)
same,AC50,[3],54.2 µM (active)
CCC(C(=O)Nc1cc(C(=O)O)ccc1C)c1ccccc1 (stereo not drawn),CC50,[4],> 40 µM (active)
CCOCCCn1/c(=N\C(=O)c2ccco2)c(C(=O)OCC)cc2c(=O)n3cccc(C)c3nc21,EC50,Kallikrein-7,38.7 µM (inactive)
CN1C(=O)c2cc(NC(=O)c3cccc(Cl)c3)ccc2OC[C@@H]2O[C@H](CC(=O)NC3CCCCC3)CC[C@@H]21,AC50,[5],51.9 µM (active)
same,AC50,Paired box protein Pax-8,7.9 µM (active)
same,AC50,[6],1.19 µM (active)
C[C@H](CO)N1C[C@H](C)[C@@H](CN(C)C(=O)c2ccccc2F)Oc2ncc(C#Cc3cccc(F)c3)cc2C1=O,AC50,[7],2.1 µM (active)
same,AC50,[8],1.97 µM (active)
same,AC50,[9],39.9 µM (active)
same,AC50,[10],1.63 µM (active)
same,AC50,[11],3.17 µM (active)
C[C@@H]1CN([C@@H](C)CO)C(=O)Cc2cc(NC(=O)Nc3ccc(C(F)(F)F)cc3)ccc2O[C@H]1CN(C)Cc1ccc(-c2ccccc2)cc1,AC50,[7],1.83 µM (active)
same,AC50,[8],1.8 µM (active)
same,AC50,[9],19.3 µM (active)
same,AC50,[10],1.11 µM (active)
same,AC50,[12],21.4 µM (active)
same,AC50,[11],1.09 µM (active)
